Assay results published in patent US6855667B2, “Method for safening crops from the phytotoxic effects of herbicides by use of phosphorated esters” (priority 2000, dated 2005).

How the values were obtained:
Format in all cases: in vivo
[1] = tested on: corn (Pioneer 3876); assay: Clomazone injury and dietholate safening of corn, variety Pioneer 3876; conditions: 14 days
Description: (§1) The compounds and compositions of the present invention were tested as water/surfactant solutions on two corn varieties (Pioneer 3733 and Pioneer 3876) and one variety (DPL 61) of cotton. In one embodiment, the safening compound and herbicidal compound were sprayed in admixture as a tank mix onto flats of corn or cotton seeds arranged in a randomized, block design. In another embodiment, the safening compound was applied to the plant seeds by placing the safening compound and the plant seeds in a screw-capped jar, which was rolled on its side until dispersion of the safening compound was complete. Optionally, a sticker compound, for example, without limitation, water or carboxymethylcellulose, can be used to adhere the safening compound to the plant seeds. The treated plant seeds were planted and immediately sprayed with herbicidal compound as described hereinabove. There were four replicates for each rate of application. The emerging corn and cotton plants were maintained in a growth chamber for 14 days after which time they were evaluated for percent injury as compared to an untreated control.

[2] = tested on: corn (Pioneer 3733); assay: Clomazone injury and dietholate safening of corn, variety Pioneer 3733; conditions: 14 days
Description: as §1

[3] = tested on: cotton (DPL 61); assay: Clomazone injury and dietholate safening of cotton, growth chamber, percent injury vs untreated control; conditions: for Percent Injury: 14 days
Description: as §1

[4] = tested on: two corn varieties (Pioneer 3733 and Pioneer 3876); assay: Clomazone injury and dietholate safening of corn, both varieties together; conditions: clomazone without the safening compound dietholate
Description: as §1, with “control. […]” for “control.”

CC1(C)CON(Cc2ccccc2Cl)C1=O [Clomazone, 2-[(2-chlorophenyl)methyl]-4,4-dimethyl-3-isoxazolidinone]
Percent Injury ([1]; clomazone 0.06 kg/ha alone): 1% | Percent Injury ([1]; clomazone 0.12 kg/ha alone): 15% | Percent Injury ([1]; clomazone 0.24 kg/ha alone): 59% | Percent Injury ([2]; clomazone 0.06 kg/ha alone): 2% | Percent Injury ([2]; clomazone 0.12 kg/ha alone): 28% | Percent Injury ([2]; clomazone 0.24 kg/ha alone): 75% | Percent Injury ([3]; clomazone 0.25 kg/ha alone): 46% | Percent Injury ([3]; clomazone 0.50 kg/ha alone): 77% | Percent Injury ([3]; clomazone 1.0 kg/ha alone): 91% | injury to cotton (in words) ([3]; clomazone without the safening compound dietholate): significant injury | injury to corn (in words) [4]: significant injury
